Experimental data reported in patent US12145944B2, “Imidazopyrimidines as EED inhibitors and the use thereof” (THE REGENTS OF THE UNIVERSITY OF MICHIGAN, priority 2019, dated 2024).
Read-outs that look alike come from different tables or passages of the source.

Columns and labels:
EED (1-441)-His protein = target: T1, EED (1-441)-His protein (Homo sapiens, UniProt O75530); test: EED-H3K27Me3 peptide competition binding assay by AlphaScreen
T1 construct: 20 nM EED (1-441)-His protein
Procedure: “N/A” stands for “not assessed”.
EED-H3K27Me3 peptide competition binding assay by AlphaScreen (α-screen)
2.5 μl of solutions containing 20 nM biotin-H3K27Me3 (19-33) peptide in the buffer (25 mM HEPES, pH 8, 0.02% Tween-20, 0.5% BSA) were added to the wells and then incubated with compound for 30 min. […] Then 10 μl of the detection beads mix was added to the plate and incubated in the dark at RT for 1 h. The final concentration of donor and acceptor beads was 10 μg/ml for each. […] The data were then fit to a dose response equation to get the IC50 values.

[1] = test system: KARPAS422 human B cell lymphoma cell; test: Cell proliferation, KARPAS422, 7 day treatment (WST-8); format: cell-based
In short: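 KARPAS422 cells seeded at 2 000-3 000 cells/well and exposed to serially diluted compounds for 7 days at 37 °C, 5% CO2. Growth measured by WST-8 (1-4 h, absorbance 450 nm). Readings normalized to DMSO-treated cells; IC50 from nonlinear regression.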

[2] = EED Alpha screen binding assay, read-out: Alpha screen
[3] = anti-proliferative IC50, Karpas 422 cell line, 7 day treatment, read-out: Karpas Cell line
[4] = Homo sapiens, KARPAS-422, 168 h, read-out: Karpas Cell line (nM)

T1 sequence (O75530 whole entry): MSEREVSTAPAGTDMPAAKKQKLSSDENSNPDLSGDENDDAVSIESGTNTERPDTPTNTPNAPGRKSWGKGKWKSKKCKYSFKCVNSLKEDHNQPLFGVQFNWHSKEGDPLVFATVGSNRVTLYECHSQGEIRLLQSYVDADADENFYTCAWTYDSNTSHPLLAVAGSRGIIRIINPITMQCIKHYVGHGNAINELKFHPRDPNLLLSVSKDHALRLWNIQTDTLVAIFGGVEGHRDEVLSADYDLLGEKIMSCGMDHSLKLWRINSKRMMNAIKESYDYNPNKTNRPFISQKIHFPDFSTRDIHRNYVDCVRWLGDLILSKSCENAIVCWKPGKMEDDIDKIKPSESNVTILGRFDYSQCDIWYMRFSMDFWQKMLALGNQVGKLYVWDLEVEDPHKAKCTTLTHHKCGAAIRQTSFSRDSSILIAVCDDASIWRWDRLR

| Compound | IC50 (EED (1-441)-His protein; [2]) [nM] | IC50 [1, 3] [nM] | IC50 [1, 4] [nM] | IC50 (EED (1-441)-His protein) [nM] |
| --- | --- | --- | --- | --- |
| 4-(2,2-difluoroethyl)-7-fluoro-12-(((5-fluoro-2,3- dihydrobenzofuran-4-yl)methyl)amino)-4,5-dihydro- 3H-2,4,11,12a-tetraazabenzo[4,5]cycloocta[1,2,3- cd]inden-3-one [compound 80] | 1.61 | 2.42 | – | – |
| 4-(2,2-difluoropropyl)-7-fluoro-12-(((5-fluoro-2,3- dihydrobenzofuran-4-yl)methyl)amino)-4,5-dihydro- 3H-2,4,11,12a-tetraazabenzo[4,5]cycloocta[1,2,3- cd]inden-3-one [compound 76] | 0.97 | 14.5 | – | – |
| 7-fluoro-12-(((5-fluoro-2,3-dihydrobenzofuran-4- yl)methyl)amino)-4-(1-methylpiperidin-4-yl)-4,5- dihydro-3H-2,4,11,12a- tetraazabenzo[4,5]cycloocta[1,2,3-cd]inden-3-one [compound 75] | 1.72 | 11.1 | – | – |
| 7-fluoro-12-(((5-fluoro-2,3-dihydrobenzofuran-4- yl)methyl)amino)-4-(2-fluoro-2-methylpropyl)-4,5- dihydro-3H-2,4,11,12a- tetraazabenzo[4,5]cycloocta[1,2,3-cd]inden-3-one [compound 78] | 3.23 | 34.5 | – | – |
| 7-fluoro-12-(((5-fluoro-2,3-dihydrobenzofuran-4- yl)methyl)amino)-4-(2-fluoroethyl)-4,5-dihydro-3H- 2,4,11,12a-tetraazabenzo[4,5]cycloocta[1,2,3- cd]inden-3-one [compound 79] | 1.61 | 15.3 | – | – |
| CS(=O)(=O)c1ncn2c(NCc3c(F)ccc4c3CCO4)ncc(-c3ccc(F)cc3)c12 [compound 104, N-((5-fluoro-2,3-dihydrobenzofuran-4-yl)methyl)-8-(4-fluorophenyl)-1 (methylsulfonyl)imidazo[1,5-c]pyrimidin-5-amine] | 0.59 | – | 8.1 | – |
| Cn1cc(-c2cnc(NCc3c(F)ccc4c3CCO4)n3cnc(S(C)(=O)=O)c23)cn1 [compound 106, N-((5-fluoro-2,3-dihydrobenzofuran-4-yl)methyl)-8-(1-methyl-1H-pyrazol-4-yl)-1-(methylsulfonyl)imidazo[1,5-c]pyrimidin-5-amine] | 0.556 | – | 10.6 | – |
| CS(=O)(=O)c1ncn2c(NCc3c(F)ccc4c3CCO4)ncc(-c3ccc(C(F)F)nc3)c12 [compound 107, 8-(6-(difluoromethyl)pyridin-3-yl)-N-((5-fluoro-2,3-dihydrobenzofuran-4-yl)methyl)-1-(methylsulfonyl)imidazo[1,5-c]pyrimidin-5-amine] | – | – | 2.84 | 0.215 |
| Cc1ccc(-c2cnc(NCc3c(F)ccc4c3CCO4)n3cnc(S(C)(=O)=O)c23)c(C)n1 [compound 108, 8-(2,6-dimethylpyridin-3-yl)-N-((5-fluoro-2,3-dihydrobenzofuran-4-yl)methyl)-1-(methylsulfonyl)imidazo[1,5-c]pyrimidin-5-amine] | 0.421 | – | 6.89 | – |
| Cc1nc(C(F)(F)F)ccc1-c1cnc(NCc2c(F)ccc3c2CCO3)n2cnc(S(C)(=O)=O)c12 [compound 109, N-((5-fluoro-2,3-dihydrobenzofuran-4-yl)methyl)-8-(2-methyl-6-(trifluoromethyl)pyridin-3-yl)-1-(methylsulfonyl)imidazo[1,5-c]pyrimidin-5-amine] | 0.53 | – | 10.9 | – |
| Cc1cc(S(C)(=O)=O)ccc1-c1cnc(NCc2c(F)ccc3c2CCO3)n2cnc(S(C)(=O)=O)c12 [compound 110, N-((5-fluoro-2,3-dihydrobenzofuran-4-yl)methyl)-8-(2-methyl-4-(methylsulfonyl)phenyl)-1-(methylsulfonyl)imidazo[1,5-c]pyrimidin-5-amine] | 0.47 | – | 3.93 | – |
| CS(=O)(=O)c1ncn2c(NCc3c(F)ccc4c3CCO4)ncc(-c3ccc(C4CC4)nc3)c12 [compound 111, 8-(6-cyclopropylpyridin-3-yl)-N-((5-fluoro-2,3-dihydrobenzofuran-4-yl)methyl)-1-(methylsulfonyl)imidazo[1,5-c]pyrimidin-5-amine] | 0.34 | – | 1.42 | – |
